Assays:
Assay type in all cases: functional, cell-based
A-375 = test: Antiproliferative activity against human A375 cells after 72 hrs by ATPlite assay; conditions: A-375, 72 h
A549 = test: Antiproliferative activity against human A549 cells after 72 hrs by ATPlite assay; conditions: A549, 72 h
[1] = Antiproliferative activity against human NAMALWA cells after 72 hrs by ATPlite assay; conditions: NAMALVA
[2] = Antiproliferative activity against human HCT116 cells after 72 hrs by ATPlite assay; conditions: HCT-116, 72 h

| SMILES | IC50 (A-375) | IC50 (A549) | IC50 [1] | IC50 [2] |
| --- | --- | --- | --- | --- |
| COc1ccc2c3c(c4cc(OC)c(OC)cc4c2c1)C[C@H]1CCCCN1C3 [CRYPTOPLEURINE] | 1.2 nM | – | 2.6 nM | 0.7 nM |
| COc1ccc2c3c(c4cc(OC)c(OC)cc4c2c1)C[C@H]1CCCN1C3 [(-)-ANTOFINE] | – | 10 nM | – | – |
| COc1cc2c3c(c4ccc(O)cc4c2cc1OC)CN1CCCC[C@@H]1C3 | 1.6 nM | 2.5 nM | 4.1 nM | 1.4 nM |
| COc1cc2c3c(c4ccc(O)cc4c2cc1OC)CN1CCC[C@@H]1C3 | – | 1 nM | – | – |

The next lines start with results.

| IC50 (A-375) | IC50 (A549) | SMILES | IC50 [1] | IC50 [2] |
| --- | --- | --- | --- | --- |
| 56 nM | 65 nM | COc1cc2c3c(c4ccc(O)cc4c2cc1OC)CN1CCCC[C@@H]1C3=O | 60 nM | 21 nM |
| 0.3 nM | 1.4 nM | COc1cc2c3c(c4ccc(O)cc4c2cc1OC)CN1CCCC[C@@H]1[C@@H]3O | 1.1 nM | 0.3 nM |
